The test system of one data set is CD-1 female mice. Conditions: CD-1, mouse, in vivo.
The subject of another data set is CDKs 1, 2, 5, 8 and 9. Nature of the data set: In vitro kinase assay, other CDKs. It counts as biochemical. Conditions: data not shown.
Data set [1] deals with PARP cleavage in MCF-7 and MDA-MB-231 cells. Nature of the data set: PARP cleavage, Western blot. It counts as cell-based, human. As to conditions: 24 h, 1 μM. A general note: Immunoblotting shows a protein as a band on a membrane.
The test system of data set [2] is MDA-MB-231 tumor xenograft. Nature of the data set: Orthotopic nude mouse assay. The format is in vivo.
The test system of data set [3] is MCF-7 and MDA-MB-231 cells. Nature of the data set: Flow cytometry after prolonged treatment. The format is cell-based, human. As to conditions: greater than 48 h. For orientation: Flow cytometry measures light scatter and fluorescence of single cells or particles in a stream.
In data set [4] the test system is AKT phosphorylation in MDA-MB-231 cells. Nature of the data set: AKT phosphorylation. The format is cell-based, human. As to conditions: MDA-MB-231, increasing concentrations, 24 h.
Another data set deals with human tumor cell lines. Nature of the data set: Growth arrest of a panel of human tumor cell lines. As to conditions: read-out: GI50 values, growth arrest of most tumor cell lines. The format is cell-based.
Another data set deals with tumor cells. Nature of the data set: Induction of apoptosis of tumor cells. It counts as cell-based.
Data set [5] can be described thus: Water solubility of salts. It counts as physicochemical. As to conditions: compared to the salts of monocyclic amines (7m and 7s).
The subject of the next data set is CDK6. As to conditions: read-out: IC50 CDK6; cited from earlier work.
Another data set relates to CDK4. Conditions: read-out: IC50 CDK4; cited from earlier work.

Broadly, the GI50 is the concentration giving 50% growth inhibition. Usually IC50 stands for the concentration needed to halve the response being measured.

Take `CN1CCN(c2ccc(Nc3ncc4cc(C#N)c(=O)n(C5CCCC5)c4n3)cc2)CC1` [7x, 8-Cyclopentyl-2-[4-(4-methyl-piperazin-1-yl)-phenylamino]-7-oxo-7,8-dihydro-pyrido[2,3-d]pyrimidine-6-carbonitrile]: in the data set on CD-1 female mice, the “mice surviving more than 10 days after injection” value came to 100%. The “inhibitory activity against CDKs 1, 2, 5, 8 and 9” value in the data set on CDKs 1, 2, 5, 8 and 9 is given as “little inhibitory activity”. Besides, in data set [1], the “PARP cleavage (~89 kDa cleaved polypeptide)” value was “dose-dependent accumulation of the ~89 kDa cleaved PARP polypeptide”. The tumor growth result in [2] (50 mg/kg Q2D IP, 21 day period) is given as “dose-dependent inhibition of tumor growth”. Besides, in data set [2] (50 mg/kg Q2D IP, body weights), the “signs of toxicity in treated groups” value was “No overt signs of toxicity”. For the same compound, the “tumor weight at the end-point of the study” value in [2] (data not shown) is “decrease in tumor weight”. For the same compound, the “sub-G1 population (apoptosis)” value in data set [3] is recorded as “appearance of a sub-G1 population”. Also, the “phosphorylation of AKT (Ser473)” value in data set [4] is given as “inhibits the phosphorylation of AKT”. Moreover, the GI50 in the data set on human tumor cell lines was in the range of 25 to 2000 nM. Also, in the data set with tumor cells, the “concentration inducing apoptosis of tumor cells” value fell in the range of 30 to 100 nM.
As for `N#Cc1cc2cnc(N3CCN(c4ccc(C(F)(F)F)cn4)CC3)nc2n(C2CCCC2)c1=O` [7w, 8-Cyclopentyl-7-oxo-2-[4-(5-trifluoromethyl-pyridin-2-yl)-piperazin-1-yl]-7,8-dihydro-pyrido[2,3-d]pyrimidine-6-carbonitrile], in data set [5], the “water solubility of salts” value is recorded as “enhanced water solubility”.
Same read-out and setting: next, `N#Cc1cc2cnc(Nc3ccc(N4CCOCC4)cc3)nc2n(C2CCCC2)c1=O` [7t, 8-Cyclopentyl-2-(4-morpholin-4-yl-phenylamino)-7-oxo-7,8-dihydro-pyrido[2,3-d]pyrimidine-6-carbonitrile]: “enhanced water solubility”; `CN1CCN(c2ccc(Nc3ncc4cc(C#N)c(=O)n(C5CCCC5)c4n3)nc2)CC1` [7v, 8-Cyclopentyl-2-[5-(4-methyl-piperazin-1-yl)-pyridin-2-ylamino]-7-oxo-7,8-dihydro-pyrido[2,3-d]pyrimidine-6-carbonitrile]: “enhanced water solubility”; `N#Cc1cc2cnc(Nc3ccc(N4CCOCC4)cn3)nc2n(C2CCCC2)c1=O` [7u, 8-Cyclopentyl-2-(5-morpholin-4-yl-pyridin-2-ylamino)-7-oxo-7,8-dihydro-pyrido[2,3-d] pyrimidine-6-carbonitrile]: “enhanced water solubility”.
For `CC(=O)c1c(C)c2cnc(Nc3ccc(N4CCNCC4)cn3)nc2n(C2CCCC2)c1=O` [PD-0332991, Palbociclib, reference compound], the “PARP cleavage (~89 kDa cleaved polypeptide)” value in [1] was “not observed”. The “sub-G1 population (apoptosis)” value in data set [3] is recorded as “absent”. The IC50 was 15 nM in the data set with CDK6 and […] with CDK4.

The values above are taken from publication PMC3983396 (Journal of medicinal chemistry, 2014).
